# Measurements reported in ChEMBL document CHEMBL4011582, “Human drug-induced liver injury severity is highly associated with dual inhibition of liver mitochondrial function and bile salt export pump” (Hepatology, 2014).
# Key:
# [1] = clinical; conditions: human
# [2] = tested on: Liver; type: ADME, mitochondria, Rattus norvegicus, Sprague-Dawley
# [3] = target: Bile salt export pump (Homo sapiens, UniProt O95342); type: ADME
# Bile salt export pump, sequence (O95342 whole entry): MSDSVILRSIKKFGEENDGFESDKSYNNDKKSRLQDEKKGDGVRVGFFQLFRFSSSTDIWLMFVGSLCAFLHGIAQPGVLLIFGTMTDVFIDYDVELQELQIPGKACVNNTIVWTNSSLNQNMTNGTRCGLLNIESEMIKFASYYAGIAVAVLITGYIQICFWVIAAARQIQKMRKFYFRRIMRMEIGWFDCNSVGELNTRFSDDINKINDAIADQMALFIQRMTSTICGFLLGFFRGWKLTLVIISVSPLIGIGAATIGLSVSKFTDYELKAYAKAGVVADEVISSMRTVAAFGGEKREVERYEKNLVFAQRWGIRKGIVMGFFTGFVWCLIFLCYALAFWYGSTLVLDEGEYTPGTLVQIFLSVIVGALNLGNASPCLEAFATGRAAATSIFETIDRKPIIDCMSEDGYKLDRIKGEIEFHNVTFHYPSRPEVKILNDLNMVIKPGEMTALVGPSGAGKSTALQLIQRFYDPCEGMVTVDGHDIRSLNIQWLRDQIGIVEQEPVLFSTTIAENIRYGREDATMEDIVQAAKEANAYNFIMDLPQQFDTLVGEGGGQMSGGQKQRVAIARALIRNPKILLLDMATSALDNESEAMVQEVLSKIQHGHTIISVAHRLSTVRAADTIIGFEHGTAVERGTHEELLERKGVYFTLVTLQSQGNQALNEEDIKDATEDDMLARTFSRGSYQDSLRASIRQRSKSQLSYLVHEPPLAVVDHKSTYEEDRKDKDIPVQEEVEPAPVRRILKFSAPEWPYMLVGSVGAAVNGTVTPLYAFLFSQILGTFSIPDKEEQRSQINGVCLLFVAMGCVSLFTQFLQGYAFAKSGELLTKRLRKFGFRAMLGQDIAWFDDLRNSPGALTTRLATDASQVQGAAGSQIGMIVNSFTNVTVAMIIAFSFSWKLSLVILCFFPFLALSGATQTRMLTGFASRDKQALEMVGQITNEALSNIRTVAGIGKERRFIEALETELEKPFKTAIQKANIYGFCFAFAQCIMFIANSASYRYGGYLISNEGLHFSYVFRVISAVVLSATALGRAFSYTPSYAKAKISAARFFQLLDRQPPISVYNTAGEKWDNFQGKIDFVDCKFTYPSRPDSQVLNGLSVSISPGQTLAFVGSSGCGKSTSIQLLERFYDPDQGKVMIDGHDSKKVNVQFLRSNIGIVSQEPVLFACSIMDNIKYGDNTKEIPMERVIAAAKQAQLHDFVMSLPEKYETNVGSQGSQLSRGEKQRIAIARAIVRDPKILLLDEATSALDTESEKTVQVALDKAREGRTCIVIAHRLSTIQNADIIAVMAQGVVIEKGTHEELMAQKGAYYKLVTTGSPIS
SMILES,Cmax [1] [µM],IC50 [2],IC50 ([3]; read-out: IC50) [µM],IC50 [3] [µM]
CC(C)(C)NC(=O)[C@@H]1C[C@@H]2CCCC[C@@H]2CN1C[C@@H](O)[C@H](Cc1ccccc1)NC(=O)[C@H](CC(N)=O)NC(=O)c1ccc2ccccc2n1,3.36,Non-Toxic,–,–
CCC(=O)O[C@]1(C(=O)CCl)[C@@H](C)C[C@H]2[C@@H]3CCC4=CC(=O)C=C[C@]4(C)[C@@]3(F)[C@@H](O)C[C@@]21C [CLOBETASOL PROPIONATE],0.043,Non-Toxic,–,–
CC1=C(/C=C/C(C)=C/C=C/C(C)=C\C(=O)O)C(C)(C)CCC1 [ISOTRETINOIN],2.87,–,–,–
CC(=O)O[C@H]1C(=O)[C@@]2(C)[C@H]([C@H](OC(=O)c3ccccc3)[C@]3(O)C[C@H](OC(=O)[C@H](O)[C@@H](NC(=O)c4ccccc4)c4ccccc4)C(C)=C1C3(C)C)[C@]1(OC(C)=O)CO[C@@H]1C[C@@H]2O [PACLITAXEL],–,Non-Toxic,–,–
COc1ccccc1Oc1c(NS(=O)(=O)c2ccc(C(C)(C)C)cc2)nc(-c2ncccn2)nc1OCCO [BOSENTAN],7.43,–,29,–
CO[C@H]1/C=C/O[C@@]2(C)Oc3c(C)c(O)c4c(O)c(c(/C=N/N5CCN(C)CC5)c(O)c4c3C2=O)NC(=O)/C(C)=C\C=C\[C@H](C)[C@H](O)[C@@H](C)[C@@H](O)[C@@H](C)[C@H](OC(C)=O)[C@@H]1C [RIFAMPIN],8.5,Non-Toxic,18.7,–
CCC1=C(C)CN(C(=O)NCCc2ccc(S(=O)(=O)NC(=O)N[C@H]3CC[C@H](C)CC3)cc2)C1=O [GLIMEPIRIDE],1.12,Non-Toxic,34,–
Cc1ncc2n1-c1ccc(Cl)cc1C(c1ccccc1F)=NC2 [MIDAZOLAM],0.65,Non-Toxic,–,–
Cc1ccc(NC(=O)c2ccc(CN3CCN(C)CC3)cc2)cc1Nc1nccc(-c2cccnc2)n1 [IMATINIB],7.09,Non-Toxic,–,–
CNC(=O)c1cc(Oc2ccc(NC(=O)Nc3ccc(Cl)c(C(F)(F)F)c3)cc2)ccn1 [SORAFENIB],0.132,–,–,–
CC(C)C(=O)Nc1ccc([N+](=O)[O-])c(C(F)(F)F)c1 [FLUTAMIDE],0.362,–,68,–
Cc1c(O)cccc1C(=O)N[C@@H](CSc1ccccc1)[C@H](O)CN1C[C@H]2CCCC[C@H]2C[C@H]1C(=O)NC(C)(C)C,7.04,–,–,–
Clc1ccccc1C(c1ccccc1)(c1ccccc1)n1ccnc1 [CLOTRIMAZOLE],0.087,–,–,–
CC(C)CN(C[C@@H](O)[C@H](Cc1ccccc1)NC(=O)O[C@H]1CCOC1)S(=O)(=O)c1ccc(N)cc1,15.2,Non-Toxic,–,–
COc1cc2ncnc(Nc3ccc(F)c(Cl)c3)c2cc1OCCCN1CCOCC1 [GEFITINIB],0.356,–,–,–
CC(C)c1nc(CN(C)C(=O)N[C@H](C(=O)N[C@@H](Cc2ccccc2)C[C@H](O)[C@H](Cc2ccccc2)NC(=O)OCc2cncs2)C(C)C)cs1 [RITONAVIR],19.7,Non-Toxic,–,–
CCc1oc2ccccc2c1C(=O)c1cc(Br)c(O)c(Br)c1 [BENZBROMARONE],4.34,–,15.9,–
CO[C@H]1/C=C/O[C@@]2(C)Oc3c(C)c(O)c4c(c3C2=O)C2=NC3(CCN(CC(C)C)CC3)NC2=C(NC(=O)/C(C)=C\C=C\[C@H](C)[C@H](O)[C@@H](C)[C@@H](O)[C@@H](C)[C@H](OC(C)=O)[C@@H]1C)C4=O [RIFABUTIN],0.685,Non-Toxic,–,–
CC(C)n1c(/C=C/C(O)CC(O)CC(=O)O)c(-c2ccc(F)cc2)c2ccccc21 (stereo unspecified) [FLUVASTATIN],0.663,Non-Toxic,–,–
CC(C)(C)NC(=O)[C@H]1CC[C@H]2[C@@H]3CC[C@H]4NC(=O)C=C[C@]4(C)[C@H]3CC[C@]12C [FINASTERIDE],0.099,Non-Toxic,–,–
CCCN(CCC)C(=O)Cc1c(-c2ccc(Cl)cc2)nc2ccc(Cl)cn12 [ALPIDEM],0.285,–,–,–

SMILES,Cmax [1] [µM],IC50 [2],IC50 ([3]; read-out: IC50) [µM],IC50 [3] [µM]
C#C[C@]1(OC(C)=O)CC[C@H]2[C@@H]3CCC4=C[C@@H](OC(C)=O)CC[C@@H]4[C@H]3CC[C@@]21C [ETHYNODIOL DIACETATE],0.029,–,62,–
Cc1cccc(Nc2ccccc2C(=O)O)c1C [MEFENAMIC ACID],26.9,–,57,–
CCOC(=O)c1ncn2c1CN(C)C(=O)c1cc(F)ccc1-2 [FLUMAZENIL],1.12,Non-Toxic,> 100,–
COC(=O)C1=C(C)NC(C)=C(C(=O)OC)C1c1ccccc1[N+](=O)[O-] [NIFEDIPINE],–,Non-Toxic,69,–
CN(C)CCC(c1ccc(Br)cc1)c1ccccn1 (stereo unspecified) [BROMPHENIRAMINE],0.036,Non-Toxic,–,–
CC(=O)N1CCN(c2ccc(OCC3COC(Cn4ccnc4)(c4ccc(Cl)cc4Cl)O3)cc2)CC1 (stereo unspecified) [KETOCONAZOLE],12.5,–,–,–
Cc1c(C)c2c(c(C)c1O)CCC(C)(COc1ccc(CC3SC(=O)NC3=O)cc1)O2 (stereo unspecified) [TROGLITAZONE],6.39,–,–,–
CC(C)(C)NC(=O)[C@@H]1CN(Cc2cccnc2)CCN1C[C@@H](O)C[C@@H](Cc1ccccc1)C(=O)N[C@H]1c2ccccc2C[C@H]1O.O,11.7,Non-Toxic,–,–
COc1ccc(Cl)cc1C(=O)NCCc1ccc(S(=O)(=O)NC(=O)NC2CCCCC2)cc1 [GLYBURIDE],0.21,–,–,–
CC(CCc1ccc(O)cc1)NCCc1ccc(O)c(O)c1 (stereo unspecified) [DOBUTAMINE],1.34,Non-Toxic,> 100,–
CC(O)(CS(=O)(=O)c1ccc(F)cc1)C(=O)Nc1ccc(C#N)c(C(F)(F)F)c1 (stereo unspecified) [BICALUTAMIDE],1.97,–,29.3,–
O=C(O)Cc1ccccc1Nc1c(Cl)cccc1Cl [DICLOFENAC],–,–,44,–
Clc1ccc(COC(Cn2ccnc2)c2ccc(Cl)cc2Cl)cc1 (stereo unspecified) [ECONAZOLE],0.001,–,–,13.4
CCCCC1=NC2(CCCC2)C(=O)N1Cc1ccc(-c2ccccc2-c2nnn[nH]2)cc1 [IRBESARTAN],3.5,Non-Toxic,–,–
CS(=O)(=O)CCNCc1ccc(-c2ccc3ncnc(Nc4ccc(OCc5cccc(F)c5)c(Cl)c4)c3c2)o1 [LAPATINIB],4.18,Non-Toxic,–,–
COCCOC(=O)C1=C(C)NC(C)=C(C(=O)OC(C)C)C1c1cccc([N+](=O)[O-])c1 (stereo unspecified) [NIMODIPINE],0.195,–,–,–
O=C1CC2(CCCC2)CC(=O)N1CCCCN1CCN(c2ncccn2)CC1 [BUSPIRONE],0.005,Non-Toxic,> 100,–
CCCCc1nc(Cl)c(CO)n1Cc1ccc(-c2ccccc2-c2nnn[nH]2)cc1 [LOSARTAN],0.651,Non-Toxic,–,–
NS(=O)(=O)c1cc(C(=O)O)c(NCc2ccco2)cc1Cl [FUROSEMIDE],18.1,–,–,–
Nc1nc(=O)c2nc(CNc3ccc(C(=O)N[C@@H](CCC(=O)O)C(=O)O)cc3)cnc2[nH]1 [FOLIC ACID],0.135,Non-Toxic,–,–
CCN(CC)CC#CCOC(=O)C(O)(c1ccccc1)C1CCCCC1 (stereo unspecified) [OXYBUTYNIN],0.022,Non-Toxic,–,–

SMILES,Cmax [1] [µM],IC50 [2],IC50 ([3]; read-out: IC50) [µM],IC50 [3] [µM]
C[C@H]1C[C@H]2[C@@H]3CCC4=CC(=O)C=C[C@]4(C)[C@@]3(Cl)[C@@H](O)C[C@]2(C)[C@@]1(O)C(=O)CO [BECLOMETHASONE],0.0002,Non-Toxic,10.3,–
CN1CCN(CCCN2c3ccccc3Sc3ccc(C(F)(F)F)cc32)CC1 [TRIFLUOPERAZINE],0.0053,Non-Toxic,–,–
CCC(=O)O[C@H]1[C@H](O[C@@H]2[C@@H](C)[C@H](O[C@H]3C[C@@](C)(OC)[C@@H](O)[C@H](C)O3)[C@@H](C)C(=O)O[C@H](CC)[C@@](C)(O)[C@H](O)[C@@H](C)C(=O)[C@H](C)C[C@@]2(C)O)O[C@H](C)C[C@@H]1N(C)C.CCCCCCCCCCCCOS(=O)(=O)O [ERYTHROMYCIN ESTOLATE],4.2,–,–,–
CC(C)(C)NCC(O)c1ccc(O)c(CO)c1 (stereo unspecified) [ALBUTEROL],0.058,Non-Toxic,–,–
Cc1ccc(N(CC2=NCCN2)c2cccc(O)c2)cc1 [PHENTOLAMINE],0.086,Non-Toxic,–,–
N[C@@H](Cc1cc(I)c(Oc2ccc(O)c(I)c2)c(I)c1)C(=O)O [LIOTHYRONINE],0.108,–,–,–
CC(C)/N=c1\cc2n(-c3ccc(Cl)cc3)c3ccccc3nc-2cc1Nc1ccc(Cl)cc1 [CLOFAZIMINE],1.48,Non-Toxic,–,–
COC(=O)C1=C(C)NC(C)=C(C(=O)OCCN(C)Cc2ccccc2)C1c1cccc([N+](=O)[O-])c1 (stereo unspecified) [NICARDIPINE],0.081,–,–,–
CCc1nn(CCCN2CCN(c3cccc(Cl)c3)CC2)c(=O)n1CCOc1ccccc1 [NEFAZODONE],6.8,–,7,–
Oc1ncnc2[nH]ncc12 [ALLOPURINOL],–,–,> 100,–
CCCc1nc2c(C)cc(-c3nc4ccccc4n3C)cc2n1Cc1ccc(-c2ccccc2C(=O)O)cc1,0.851,–,–,–
CC(COc1ccccc1)N(CCCl)Cc1ccccc1 (stereo unspecified) [PHENOXYBENZAMINE],0.197,Non-Toxic,–,–
C#C[C@]1(O)CC[C@H]2[C@@H]3CCC4=Cc5oncc5C[C@]4(C)[C@H]3CC[C@@]21C [DANAZOL],0.75,–,–,–
CC(C)OC(=O)C(C)(C)Oc1ccc(C(=O)c2ccc(Cl)cc2)cc1 [FENOFIBRATE],12.1,–,41,–
COC(=O)C1=C(C)NC(C)=C(C(=O)OCC(C)C)C1c1ccccc1[N+](=O)[O-] (stereo unspecified) [NISOLDIPINE],0.0129,Non-Toxic,–,–
COc1cc(C(=O)NS(=O)(=O)c2ccccc2C)ccc1Cc1cn(C)c2ccc(NC(=O)OC3CCCC3)cc12 [ZAFIRLUKAST],1.21,–,–,–
CC(=O)[C@H]1CC[C@H]2[C@@H]3CCC4=CC(=O)CC[C@]4(C)[C@H]3CC[C@]12C [PROGESTERONE],0.193,–,–,–
CC[C@H](C)C(=O)O[C@H]1C[C@@H](C)C=C2C=C[C@H](C)[C@H](CC[C@@H]3C[C@@H](O)CC(=O)O3)[C@H]21 [LOVASTATIN],0.025,Non-Toxic,–,–
CCc1ccc(CCOc2ccc(CC3SC(=O)NC3=O)cc2)nc1 (stereo unspecified) [PIOGLITAZONE],2.95,–,–,–
